Measured values: the kinase profiling compilation of Christmann-Franck et al. (2016)
Several values for one entry are separate records, joined by “and”; a condition that tells them apart may be missing. Equal values may be shown once.

Legend:
Assay in all cases: radiometric filter-binding kinase assay, Kinase HotSpot
Conditions in all cases: compound 0.5 µM; ATP 10 µM
NEK1 (human) = NEK1 (human) (UniProt Q96PY6)
CDK3 CCNE1 (human) = CDK3 CCNE1 (human) (UniProt Q00526+P24864)
PRKCD (human) = PRKCD (human) (UniProt Q05655)
PRKCD (human), sequence (Q05655 whole entry, looked up): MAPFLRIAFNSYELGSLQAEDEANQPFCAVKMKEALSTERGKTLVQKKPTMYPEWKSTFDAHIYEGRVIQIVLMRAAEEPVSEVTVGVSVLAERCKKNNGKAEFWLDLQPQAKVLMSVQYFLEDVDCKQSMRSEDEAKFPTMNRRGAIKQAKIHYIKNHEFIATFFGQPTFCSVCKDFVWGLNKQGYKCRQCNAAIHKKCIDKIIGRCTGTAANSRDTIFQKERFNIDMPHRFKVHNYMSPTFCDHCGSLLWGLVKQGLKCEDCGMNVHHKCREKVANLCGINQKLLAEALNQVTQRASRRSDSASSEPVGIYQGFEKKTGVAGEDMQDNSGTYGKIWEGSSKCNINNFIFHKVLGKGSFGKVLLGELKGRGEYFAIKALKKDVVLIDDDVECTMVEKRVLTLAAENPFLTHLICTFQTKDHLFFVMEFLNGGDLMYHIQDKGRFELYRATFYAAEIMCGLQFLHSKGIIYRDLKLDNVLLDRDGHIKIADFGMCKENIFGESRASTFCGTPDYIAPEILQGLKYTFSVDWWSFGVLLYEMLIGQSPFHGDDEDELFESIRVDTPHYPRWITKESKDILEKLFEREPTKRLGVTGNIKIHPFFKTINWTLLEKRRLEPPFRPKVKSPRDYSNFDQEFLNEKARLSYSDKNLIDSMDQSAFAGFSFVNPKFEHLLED

PDGFRA (human) = PDGFRA (human) (UniProt P16234)
PRKCG (human) = PRKCG (human) (UniProt P05129)
MAP3K5 (human) = MAP3K5 (human) (UniProt Q99683)
GRK7 (human) = GRK7 (human) (UniProt Q8WTQ7)
SIK2 (human) = SIK2 (human) (UniProt Q9H0K1)
GRK5 (human) = GRK5 (human) (UniProt P34947)
AKT3 (human) = AKT3 (human) (UniProt Q9Y243)
KIT (human) = KIT (human) (UniProt P10721)
NLK (human) = NLK (human) (UniProt Q9UBE8)
LCK (human) = LCK (human) (UniProt P06239)
MLTK (human) = MLTK (human) (UniProt Q9NYL2)
MLTK (human), sequence (Q9NYL2 whole entry, looked up): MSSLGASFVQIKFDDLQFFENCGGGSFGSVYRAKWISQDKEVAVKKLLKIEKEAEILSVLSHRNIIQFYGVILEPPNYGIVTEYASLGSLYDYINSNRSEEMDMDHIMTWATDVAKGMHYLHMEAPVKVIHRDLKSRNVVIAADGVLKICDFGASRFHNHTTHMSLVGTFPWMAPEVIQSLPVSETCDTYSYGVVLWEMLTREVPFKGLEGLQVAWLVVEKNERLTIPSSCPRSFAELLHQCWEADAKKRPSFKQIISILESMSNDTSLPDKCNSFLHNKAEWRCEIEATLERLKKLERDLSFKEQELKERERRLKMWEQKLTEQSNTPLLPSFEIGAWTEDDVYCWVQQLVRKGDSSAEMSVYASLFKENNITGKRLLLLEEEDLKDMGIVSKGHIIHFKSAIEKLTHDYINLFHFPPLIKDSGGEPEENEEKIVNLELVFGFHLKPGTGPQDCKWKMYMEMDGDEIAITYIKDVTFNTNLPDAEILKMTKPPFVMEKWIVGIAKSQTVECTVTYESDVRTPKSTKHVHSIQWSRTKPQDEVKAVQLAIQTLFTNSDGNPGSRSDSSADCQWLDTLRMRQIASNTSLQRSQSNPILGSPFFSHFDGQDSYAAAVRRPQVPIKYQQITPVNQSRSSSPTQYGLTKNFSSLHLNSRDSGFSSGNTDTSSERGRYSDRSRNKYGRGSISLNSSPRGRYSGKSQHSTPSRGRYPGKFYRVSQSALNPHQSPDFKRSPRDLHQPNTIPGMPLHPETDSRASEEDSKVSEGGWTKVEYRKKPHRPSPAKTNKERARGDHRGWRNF

AKT1 (human) = AKT1 (human) (UniProt P31749)
AKT1 (human), sequence (P31749 whole entry, looked up): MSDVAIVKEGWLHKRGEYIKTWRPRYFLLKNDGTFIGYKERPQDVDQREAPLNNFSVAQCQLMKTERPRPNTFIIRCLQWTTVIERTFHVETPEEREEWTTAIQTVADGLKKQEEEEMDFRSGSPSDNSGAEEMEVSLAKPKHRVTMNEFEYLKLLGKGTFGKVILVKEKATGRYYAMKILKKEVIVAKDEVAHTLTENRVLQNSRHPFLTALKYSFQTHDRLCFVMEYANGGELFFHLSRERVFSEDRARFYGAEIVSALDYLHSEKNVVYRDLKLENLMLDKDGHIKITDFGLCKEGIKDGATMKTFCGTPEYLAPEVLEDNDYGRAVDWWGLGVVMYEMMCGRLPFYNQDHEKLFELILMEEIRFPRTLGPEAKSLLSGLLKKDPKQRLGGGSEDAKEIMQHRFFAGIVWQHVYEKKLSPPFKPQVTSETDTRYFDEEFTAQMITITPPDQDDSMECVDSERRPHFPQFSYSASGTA

DDR2 (human) = DDR2 (human) (UniProt Q16832)
RPS6KB1 (human) = RPS6KB1 (human) (UniProt P23443)
PRKX (human) = PRKX (human) (UniProt P51817)
PRKX (human), sequence (P51817 whole entry, looked up): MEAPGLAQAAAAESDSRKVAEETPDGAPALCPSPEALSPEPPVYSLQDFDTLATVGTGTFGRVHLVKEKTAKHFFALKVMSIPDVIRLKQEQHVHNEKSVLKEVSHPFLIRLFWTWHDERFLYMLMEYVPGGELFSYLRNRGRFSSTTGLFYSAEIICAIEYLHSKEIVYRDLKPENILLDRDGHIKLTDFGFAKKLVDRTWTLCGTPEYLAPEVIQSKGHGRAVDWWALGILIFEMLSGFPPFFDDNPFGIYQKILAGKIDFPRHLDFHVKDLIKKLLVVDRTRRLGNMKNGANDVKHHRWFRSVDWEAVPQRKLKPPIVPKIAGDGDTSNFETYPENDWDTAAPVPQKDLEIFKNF

CSK (human) = CSK (human) (UniProt P41240)
PTK2 (human) = PTK2 (human) (UniProt Q05397)
PTK2 (human), sequence (Q05397 whole entry, looked up): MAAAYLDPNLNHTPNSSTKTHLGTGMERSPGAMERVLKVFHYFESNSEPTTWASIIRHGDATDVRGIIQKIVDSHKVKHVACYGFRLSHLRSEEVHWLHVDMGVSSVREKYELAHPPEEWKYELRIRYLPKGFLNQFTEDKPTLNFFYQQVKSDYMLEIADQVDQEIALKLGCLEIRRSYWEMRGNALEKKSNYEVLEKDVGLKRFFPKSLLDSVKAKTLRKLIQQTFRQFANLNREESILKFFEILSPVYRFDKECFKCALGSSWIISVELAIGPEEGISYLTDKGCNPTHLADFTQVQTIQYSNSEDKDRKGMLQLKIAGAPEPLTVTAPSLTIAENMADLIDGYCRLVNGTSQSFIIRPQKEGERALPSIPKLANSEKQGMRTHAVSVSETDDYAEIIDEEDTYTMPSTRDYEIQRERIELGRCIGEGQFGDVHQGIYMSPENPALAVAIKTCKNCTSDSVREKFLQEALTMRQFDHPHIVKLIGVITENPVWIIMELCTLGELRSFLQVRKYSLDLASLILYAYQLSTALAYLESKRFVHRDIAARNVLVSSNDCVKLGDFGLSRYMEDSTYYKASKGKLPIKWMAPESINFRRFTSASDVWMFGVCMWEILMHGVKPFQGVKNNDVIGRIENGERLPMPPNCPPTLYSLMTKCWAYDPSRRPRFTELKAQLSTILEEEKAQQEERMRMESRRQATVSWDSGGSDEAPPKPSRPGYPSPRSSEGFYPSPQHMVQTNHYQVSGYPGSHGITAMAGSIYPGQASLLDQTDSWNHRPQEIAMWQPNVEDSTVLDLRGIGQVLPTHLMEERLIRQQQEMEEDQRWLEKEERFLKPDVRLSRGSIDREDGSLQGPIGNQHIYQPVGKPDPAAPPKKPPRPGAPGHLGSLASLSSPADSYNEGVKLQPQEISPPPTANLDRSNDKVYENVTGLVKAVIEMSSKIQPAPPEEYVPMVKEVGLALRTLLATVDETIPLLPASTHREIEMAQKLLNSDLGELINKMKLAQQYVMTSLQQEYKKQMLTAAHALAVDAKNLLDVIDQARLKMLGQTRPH

PRKCH (human) = PRKCH (human) (UniProt P24723)
ROS1 (human) = ROS1 (human) (UniProt P08922)
BLK (human) = BLK (human) (UniProt P51451)
LYN (human) = LYN (human) (UniProt P07948)
GRK4 (human) = GRK4 (human) (UniProt P32298)
KDR (human) = KDR (human) (UniProt P35968)
NEK3 (human) = NEK3 (human) (UniProt P51956)
EPHA8 (human) = EPHA8 (human) (UniProt P29322)
CDC42BPA (human) = CDC42BPA (human) (UniProt Q5VT25)
SRPK2 (human) = SRPK2 (human) (UniProt P78362)
OXSR1 (human) = OXSR1 (human) (UniProt O95747)
BMX (human) = BMX (human) (UniProt P51813)
IKBKB (human) = IKBKB (human) (UniProt O14920)
EPHA2 (human) = EPHA2 (human) (UniProt P29317)
PRKG2 (human) = PRKG2 (human) (UniProt Q13237)
PRKG2 (human), sequence (Q13237 whole entry, looked up): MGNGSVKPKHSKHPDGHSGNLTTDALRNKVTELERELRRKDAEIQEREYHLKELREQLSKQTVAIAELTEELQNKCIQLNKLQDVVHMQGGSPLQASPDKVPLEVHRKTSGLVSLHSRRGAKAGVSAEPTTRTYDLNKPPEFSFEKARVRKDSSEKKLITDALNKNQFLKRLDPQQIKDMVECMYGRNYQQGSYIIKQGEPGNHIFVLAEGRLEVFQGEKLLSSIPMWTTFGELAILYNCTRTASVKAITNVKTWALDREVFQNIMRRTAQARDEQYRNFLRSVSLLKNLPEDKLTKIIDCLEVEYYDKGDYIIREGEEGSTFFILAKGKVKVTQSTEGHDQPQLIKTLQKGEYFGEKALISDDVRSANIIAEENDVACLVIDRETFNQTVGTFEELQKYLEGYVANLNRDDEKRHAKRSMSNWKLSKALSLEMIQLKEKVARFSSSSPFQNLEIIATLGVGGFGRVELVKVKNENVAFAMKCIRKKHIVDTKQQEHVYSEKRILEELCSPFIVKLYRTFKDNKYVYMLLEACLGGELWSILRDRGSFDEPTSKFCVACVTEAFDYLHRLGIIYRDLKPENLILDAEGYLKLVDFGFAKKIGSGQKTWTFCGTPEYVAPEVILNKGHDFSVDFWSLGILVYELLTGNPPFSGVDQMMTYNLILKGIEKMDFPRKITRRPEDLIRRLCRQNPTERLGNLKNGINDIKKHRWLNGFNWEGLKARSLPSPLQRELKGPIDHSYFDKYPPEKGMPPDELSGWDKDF

TBK1 (human) = TBK1 (human) (UniProt Q9UHD2)
TAOK2 (human) = TAOK2 (human) (UniProt Q9UL54)
ULK1 (human) = ULK1 (human) (UniProt O75385)
SRMS (human) = SRMS (human) (UniProt Q9H3Y6)
NUAK1 (human) = NUAK1 (human) (UniProt O60285)
CAMK2B (human) = CAMK2B (human) (UniProt Q13554)
CLK2 (human) = CLK2 (human) (UniProt P49760)

`O=C(NC(NC(=S)Nc1ccc(F)c([N+](=O)[O-])c1)C(Cl)(Cl)Cl)C(c1ccccc1)c1ccccc1` (stereo unspecified) gave a residual activity (NEK1 (human)) of 101%, a residual activity (CDK3 CCNE1 (human)) of 105% and a residual activity (PRKCD (human)) of 91.2%. It also gave a residual activity (PDGFRA (human)) of 100%, a residual activity (PRKCG (human)) of 99.8% and a residual activity (MAP3K5 (human)) of 97.1%. It also gave a residual activity (GRK7 (human)) of 101%, a residual activity (SIK2 (human)) of 112% and a residual activity (GRK5 (human)) of 105%. The residual activity (AKT3 (human)) was 106%, the residual activity (KIT (human)) was 97.2% and the residual activity (NLK (human)) was 106%. The residual activity (LCK (human)) was 91.8%, the residual activity (MLTK (human)) was 98.6% and the residual activity (AKT1 (human)) was 118%. It also gave a residual activity (DDR2 (human)) of 96.4%, a residual activity (RPS6KB1 (human)) of 91.9% and a residual activity (PRKX (human)) of 106%. The residual activity (CSK (human)) was 99.3%, the residual activity (PTK2 (human)) was 113% and the residual activity (PRKCH (human)) was 103%. The residual activity (ROS1 (human)) was 99.5%, the residual activity (BLK (human)) was 110% and the residual activity (LYN (human)) was 103% and 116%. The residual activity (GRK4 (human)) was 101%, the residual activity (KDR (human)) was 92.5% and the residual activity (NEK3 (human)) was 96.2%. It also gave a residual activity (EPHA8 (human)) of 104%, a residual activity (CDC42BPA (human)) of 111% and a residual activity (SRPK2 (human)) of 103%. The residual activity (OXSR1 (human)) was 98.3%, the residual activity (BMX (human)) was 102% and the residual activity (IKBKB (human)) was 102%. For the same compound, the residual activity (EPHA2 (human)) was 103%, the residual activity (PRKG2 (human)) was 96.6% and the residual activity (TBK1 (human)) was 98.7%. For the same compound, the residual activity (TAOK2 (human)) was 103%, the residual activity (ULK1 (human)) was 99.1% and the residual activity (SRMS (human)) was 96.9%. The residual activity (NUAK1 (human)) was 95.3%, the residual activity (CAMK2B (human)) was 104% and the residual activity (CLK2 (human)) was 93.5%.

Work on `CCN1/C(=C/C(C)=O)Sc2ccc(OC)cc21` yielded a residual activity (NEK1 (human)) of 90.1%, a residual activity (CDK3 CCNE1 (human)) of 91.5% and a residual activity (PRKCD (human)) of 88.2%. For the same compound, the residual activity (PDGFRA (human)) was 105%, the residual activity (PRKCG (human)) was 75.4% and the residual activity (MAP3K5 (human)) was 118%. The residual activity (GRK7 (human)) was 104%, the residual activity (SIK2 (human)) was 116% and the residual activity (GRK5 (human)) was 108%. It also gave a residual activity (AKT3 (human)) of 96.1%, a residual activity (KIT (human)) of 67.8% and a residual activity (NLK (human)) of 103%. For the same compound, the residual activity (LCK (human)) was 99.4%, the residual activity (MLTK (human)) was 91% and the residual activity (AKT1 (human)) was 90.1%. It also gave a residual activity (DDR2 (human)) of 96.6%, a residual activity (RPS6KB1 (human)) of 95% and a residual activity (PRKX (human)) of 96.6%. It also gave a residual activity (CSK (human)) of 104%, a residual activity (PTK2 (human)) of 108% and a residual activity (PRKCH (human)) of 88.1%. The residual activity (ROS1 (human)) was 113%, the residual activity (BLK (human)) was 95.4% and the residual activity (LYN (human)) was 101% and 94.4%. For the same compound, the residual activity (GRK4 (human)) was 96.2%, the residual activity (KDR (human)) was 104% and the residual activity (NEK3 (human)) was 82.5%. The residual activity (EPHA8 (human)) was 98.5%, the residual activity (CDC42BPA (human)) was 85% and the residual activity (SRPK2 (human)) was 95.8%. For the same compound, the residual activity (OXSR1 (human)) was 93.5%, the residual activity (BMX (human)) was 105% and the residual activity (IKBKB (human)) was 102%. For the same compound, the residual activity (EPHA2 (human)) was 99.1%, the residual activity (PRKG2 (human)) was 65.8% and the residual activity (TBK1 (human)) was 94.5%. The residual activity (TAOK2 (human)) was 101%, the residual activity (ULK1 (human)) was 115% and the residual activity (SRMS (human)) was 84.7%. For the same compound, the residual activity (NUAK1 (human)) was 93.4%, the residual activity (CAMK2B (human)) was 102% and the residual activity (CLK2 (human)) was 25.9%.

`CC(C)n1cnc2c(Nc3cccc(Cl)c3)nc(NCCO)nc21` gave a residual activity (NEK1 (human)) of 90.4%, a residual activity (CDK3 CCNE1 (human)) of 76.9% and a residual activity (PRKCD (human)) of 89.1%. The residual activity (PDGFRA (human)) was 96.4%, the residual activity (PRKCG (human)) was 93.6% and the residual activity (MAP3K5 (human)) was 114%. It also gave a residual activity (GRK7 (human)) of 88.7%, a residual activity (SIK2 (human)) of 107% and a residual activity (GRK5 (human)) of 99.4%. It also gave a residual activity (AKT3 (human)) of 99.9%, a residual activity (KIT (human)) of 76.3% and a residual activity (NLK (human)) of 102%. The residual activity (LCK (human)) was 84.9%, the residual activity (MLTK (human)) was 96.6% and the residual activity (AKT1 (human)) was 103%. The residual activity (DDR2 (human)) was 93.3%, the residual activity (RPS6KB1 (human)) was 93.3% and the residual activity (PRKX (human)) was 96.4%. It also gave a residual activity (CSK (human)) of 98.2%, a residual activity (PTK2 (human)) of 68.9% and a residual activity (PRKCH (human)) of 99.4%. The residual activity (ROS1 (human)) was 102%, the residual activity (BLK (human)) was 91.2% and the residual activity (LYN (human)) was 80.2% and 94.6%. The residual activity (GRK4 (human)) was 93.5%, the residual activity (KDR (human)) was 103% and the residual activity (NEK3 (human)) was 92.6%. For the same compound, the residual activity (EPHA8 (human)) was 98.2%, the residual activity (CDC42BPA (human)) was 83.9% and the residual activity (SRPK2 (human)) was 37.1%. For the same compound, the residual activity (OXSR1 (human)) was 97.7%, the residual activity (BMX (human)) was 92.5% and the residual activity (IKBKB (human)) was 102%. It also gave a residual activity (EPHA2 (human)) of 93.3%, a residual activity (PRKG2 (human)) of 82.7% and a residual activity (TBK1 (human)) of 89.2%. The residual activity (TAOK2 (human)) was 97.2%, the residual activity (ULK1 (human)) was 77.6% and the residual activity (SRMS (human)) was 85.1%. For the same compound, the residual activity (NUAK1 (human)) was 67.3%, the residual activity (CAMK2B (human)) was 95.9% and the residual activity (CLK2 (human)) was 25%.
